Results: US7323044B1, “Biocidal compositions” (Troy Corporation, priority 2007, dated 2008)

How the values were obtained:
[1] = Amount of castor oil based co-solvent required to keep OBPA in solution with plasticizer; type: physicochemical; settings: with commercial plasticizers (e.g., diisodecyl phthalate); about −13° C. to about 30° C.
Experimental: As a general rule, OBPA solutions which are transported or stored at outdoor conditions, without the benefit of dedicated heating or cooling equipment, may be exposed to temperatures in the range of about −13° C. to about 30° C. […] For OBPA solutions which will be transported or stored at outdoor conditions, we prefer that the weight ratio of OBPA to the solvent is about 0.12 or less in the present invention, more preferably in the range of about 0.083 to about 0.12, and most preferably about 0.10. For OBPA solutions which will be temperature-controlled during shipment and storage, the invention can be successfully practiced over a broader range of OBPA to solvent weight ratio.

[2] = background statement; cited from earlier work

c1ccc2c(c1)Oc1ccccc1[As]2O[As]1c2ccccc2Oc2ccccc21 [OBPA, 10,10′-oxybisphenoxarsine]
Castor oil based co-solvent required to keep 1 gram of OBPA in solution [1]: at least 8 grams
Solubility of OBPA in plasticizers currently favored for manufacturing flexible PVC [2]: less than 1 wt %
